Data set [1] deals with T1, Potassium voltage-gated channel subfamily KQT member 1 (Homo sapiens, UniProt P51787).
T1 sequence (P51787 whole entry): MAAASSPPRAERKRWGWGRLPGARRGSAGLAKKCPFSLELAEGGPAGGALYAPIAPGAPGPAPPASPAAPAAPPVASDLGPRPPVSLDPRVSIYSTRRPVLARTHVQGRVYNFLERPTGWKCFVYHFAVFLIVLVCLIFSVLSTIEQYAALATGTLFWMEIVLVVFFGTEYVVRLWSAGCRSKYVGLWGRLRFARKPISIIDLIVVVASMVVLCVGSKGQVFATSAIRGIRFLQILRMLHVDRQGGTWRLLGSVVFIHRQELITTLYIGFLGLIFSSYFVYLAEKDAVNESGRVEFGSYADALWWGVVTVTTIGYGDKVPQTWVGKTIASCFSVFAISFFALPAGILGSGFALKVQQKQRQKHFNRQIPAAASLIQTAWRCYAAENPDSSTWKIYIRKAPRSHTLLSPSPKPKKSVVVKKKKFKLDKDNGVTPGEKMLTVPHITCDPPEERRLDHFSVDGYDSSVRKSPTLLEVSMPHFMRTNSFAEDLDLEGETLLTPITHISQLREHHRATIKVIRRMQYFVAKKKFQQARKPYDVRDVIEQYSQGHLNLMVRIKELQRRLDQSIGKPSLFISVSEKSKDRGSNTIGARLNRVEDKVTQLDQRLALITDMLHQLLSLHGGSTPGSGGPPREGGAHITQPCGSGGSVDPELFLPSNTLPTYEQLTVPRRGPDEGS
The experiment in a line: Inhibition of KvLQT1 (unknown origin).

In a further data set the target is Cytochrome P450 2C9 (Homo sapiens, UniProt P11712). The experiment in a line: Inhibition of CYP2C9 (unknown origin). The format is ADME.
A further data set has as its target Cytochrome P450 3A4 (Homo sapiens, UniProt P08684). The experiment in a line: Inhibition of CYP3A4 (unknown origin). Type of data set: ADME.
Data set [2] is described as follows: Half life in rat. Type of data set: ADME, organism-based. Conditions: in vivo.
Data set [3] in a line: Oral bioavailability in rat. The conditions noted are these: in vivo. The format is ADME, organism-based.

The record followed here is ChEMBL document CHEMBL4190175 (Medchemcomm, 2016).

Cytochrome P450 2C9, sequence (P11712 whole entry): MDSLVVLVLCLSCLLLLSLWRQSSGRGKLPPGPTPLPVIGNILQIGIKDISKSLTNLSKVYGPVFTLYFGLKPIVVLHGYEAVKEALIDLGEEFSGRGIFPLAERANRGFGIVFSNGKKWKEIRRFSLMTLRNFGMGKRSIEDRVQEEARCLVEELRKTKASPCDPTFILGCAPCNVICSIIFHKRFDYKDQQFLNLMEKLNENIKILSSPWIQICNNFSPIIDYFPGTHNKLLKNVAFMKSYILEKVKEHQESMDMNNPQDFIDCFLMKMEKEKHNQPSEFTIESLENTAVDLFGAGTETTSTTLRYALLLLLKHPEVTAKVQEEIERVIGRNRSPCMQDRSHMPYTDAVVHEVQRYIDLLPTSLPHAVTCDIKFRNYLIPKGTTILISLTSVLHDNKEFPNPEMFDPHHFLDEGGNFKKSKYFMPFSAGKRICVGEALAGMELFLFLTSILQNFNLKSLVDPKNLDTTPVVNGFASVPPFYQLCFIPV
Cytochrome P450 3A4, sequence (P08684 whole entry): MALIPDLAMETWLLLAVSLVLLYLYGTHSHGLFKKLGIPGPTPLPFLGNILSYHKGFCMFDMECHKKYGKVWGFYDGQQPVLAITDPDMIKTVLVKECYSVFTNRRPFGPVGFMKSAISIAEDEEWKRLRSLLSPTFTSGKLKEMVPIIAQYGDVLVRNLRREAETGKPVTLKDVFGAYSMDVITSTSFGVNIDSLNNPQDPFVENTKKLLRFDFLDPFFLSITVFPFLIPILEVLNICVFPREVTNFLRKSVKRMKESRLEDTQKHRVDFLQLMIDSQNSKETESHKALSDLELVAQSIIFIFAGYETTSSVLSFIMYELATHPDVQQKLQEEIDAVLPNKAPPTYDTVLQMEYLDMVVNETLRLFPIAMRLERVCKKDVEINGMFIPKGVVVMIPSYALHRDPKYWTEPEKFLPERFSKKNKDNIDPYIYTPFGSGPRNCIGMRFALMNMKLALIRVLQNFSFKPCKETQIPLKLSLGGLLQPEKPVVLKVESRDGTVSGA

`O=C(NC[C@@H](Cc1ccccc1)N1CCC(O)(C(F)(F)F)CC1)C1(c2ccc(Cl)cc2)CCCC1` returned an INH in data set [1] greater than 3000 nM. Besides, the IC50 was 11.4 µM against Cytochrome P450 2C9 and 2.16 µM on Cytochrome P450 3A4. Moreover, the half-life in data set [2] is 4.4 h. Further, the bioavailability in data set [3] is 5%.

Usually IC50 stands for the concentration at which inhibition is half-maximal. By half-life is commonly meant the time in which the quantity being followed falls by half. A high value points to slow loss. Broadly, the bioavailability is dose-corrected exposure relative to a reference, in per cent. A lower bioavailability goes with little systemic uptake.
